These results are taken from patent US8932563B2, “Higher loading zinc-containing films” (Colgate-Palmolive Company, priority 2009, dated 2015).

This data set can be described thus: Zinc uptake from toothpaste onto artificial soft substrate. The data set is classed as in vitro ADME. Particulars: for zinc uptake, ppm: Vitro-Skin incubated 1 hour, 1:2 dilution. On the procedure: Zinc uptake experiments were performed to compare the amount of zinc delivered to an artificial soft substrate using the same level of zinc oxide films in toothpaste with different loadings. The films (Zn30 and Zn50) were incorporated into a MaxFresh Nite toothpaste base. The experiments included comparing:
Certain parameters for testing were kept constant for the experiments. They included:
Vitro-Skin incubated for 1 hour
1:2 dilution of toothpaste to deionized water
Two 5 mL washes of deionized water for 10 seconds
There also was an increase in binding with an increase in film concentration. The zinc uptake method quantifies the amount of zinc delivered to a soft substrate. Vitro-Skin was used as a model substrate because it mimics human skin. […] Also the films act as a delivery vehicle to deposit more zinc onto the substrate than its equivalent in powder form.

Setting [1] is: 1.0% film or powder in toothpaste.

SMILES strings stand for the structures.

Regarding `[O-2].[Zn+2]` [ZnO Powder, Zinc Oxide], the “zinc uptake, μg/cm^2” value is, setting by setting: (0.15% powder in toothpaste) 5.7 μg/cm^2; under setting [1], 21.5 μg/cm^2. Besides, the “zinc uptake, ppm” value is, setting by setting: (0.15% powder in toothpaste) 2.05 ppm; under setting [1], 59.7 ppm.
